How the values were obtained:
human HDAC4 = biological target: T1, human HDAC4 (Homo sapiens, UniProt P56524); test: HDAC4 enzymatic activity assay (fluorogenic peptide); type: biochemical; conditions: 10-dose, 3-fold serial dilution, triplicate
T1 construct: amino acids 627-1085 with GST N-terminal tag, MW=75.2 kDa; GST (N); purchased BioMol, Hamburg, Germany; host or cells: baculovirus expression system
Method: Peptide substrates: all HDAC assays were performed using acetylated peptide substrates labeled with 7-amino-4-methylcoumarin (AMC): • Substrate for isoforms HDAC1, 2, 3, 6, 10, 11, and HeLa nuclear extract assays: acetylated fluorogenic peptide from p53 residues 379-382 (RHKKAc). • Substrate for isoforms HDAC4, 5, 7, 9: fluorogenic Boc-L-Lys (s-trifluoroacetyl)-AMC. • Substrate for HDAC8 assays: acetylated fluorogenic peptide from p53 residues 379-382 (RHKAcKAc).
50 μl of peptide substrate (see “peptide substrates” section above) and an optimal concentration of the corresponding enzyme (see “enzymes” section above) in the assay buffer at a final DMSO concentration of 1% were incubated in the presence of gradient concentrations of inhibitors (10-dose IC50 mode with 3-fold serial dilution) at 30° C. for 2 hours. The reactions were carried out in a 96-well microplate for fluorometry in a 50 μl reaction volume. After the deacetylation reaction, Fluor-de-Lys-Developer (BioMol Cat. #KI-105) was added to each well to digest the deacetylated substrate, thereby producing the fluorescent signal. The reaction was carried out for 45 minutes at 30° C. with 5% CO2; the fluorescent signal was then measured using an excitation wavelength of 360 nm and an emission wavelength of 460 nm in a microplate-reading fluorometer (GeminiXS, Molecular Devices, Sunnyvale, CA). […]

OCT1 = biological target: T2, OCT1 (Homo sapiens, UniProt O15245); test: Uptake study in HepG2 cells overexpressing OCT1; type: in vitro ADME
T2 construct: expressed in transfected cells; host or cells: HepG2 cells
T2 sequence (O15245 1-554): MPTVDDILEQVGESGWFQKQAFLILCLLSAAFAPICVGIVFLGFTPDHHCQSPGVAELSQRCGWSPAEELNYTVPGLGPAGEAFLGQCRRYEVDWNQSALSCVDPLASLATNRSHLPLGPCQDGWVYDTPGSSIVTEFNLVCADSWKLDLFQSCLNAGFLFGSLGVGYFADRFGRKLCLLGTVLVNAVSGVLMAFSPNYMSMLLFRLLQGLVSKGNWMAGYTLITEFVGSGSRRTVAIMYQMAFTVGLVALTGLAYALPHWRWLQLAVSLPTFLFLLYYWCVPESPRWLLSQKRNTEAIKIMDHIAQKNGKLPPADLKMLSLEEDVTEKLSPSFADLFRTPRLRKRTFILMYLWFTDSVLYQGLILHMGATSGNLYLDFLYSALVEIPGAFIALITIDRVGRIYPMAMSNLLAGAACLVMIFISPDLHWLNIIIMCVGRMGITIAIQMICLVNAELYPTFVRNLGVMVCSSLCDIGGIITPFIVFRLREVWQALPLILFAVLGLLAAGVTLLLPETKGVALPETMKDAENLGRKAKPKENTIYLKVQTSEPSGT
Description: The bile acid and organic cation transporters expressed in hepatocytes and cholangiocytes were overexpressed in HepG2 cells (OCT1) and CHO cells (OCT3). The efficacy of the process was confirmed by means of measuring the abundance of mRNA (qPCR), protein (WB), and the correct insertion in the plasma membrane (immunofluorescence). The uptake studies included comparing the uptake efficiency of the compound with respect to dihydroethidium (DHE) in the case of OCT3, and sorafenib in the case of OCT1 (positive controls), as well as the sensitivity of the process to substrate inhibition induced by the joint administration of the compound and quinine. The cell content of all the compounds was determined by means of triple quadrupole HPLC-MS/MS after extraction thereof from the cell system used in each case.

[1] = tested on: α-acetylated-tubulin in polycystic human cholangiocytes; test: Immunoblot of α-acetylated-tubulin; type: cell-based; conditions: different doses
Method: The expression of α-acetylated-tubulin (Ac-α-tubulin) and lysine 9-acetylated histone 3 (Ac-H3K9) in polycystic human cholangiocytes in culture was analyzed using Ac-α-tubulin-specific primary antibodies (1:2000, Sigma-Aldrich) and H3K9-specific primary antibodies (1:500, Cell Signaling Technology) and a peroxidase-conjugated secondary antibody (1:5000, Sigma-Aldrich). The expression of each protein was quantified using a chemiluminescence system (Amersham, GE Healthcare). The GAPDH protein was used as loading control.

[2] = tested on: normal human cholangiocytes (NHC3); test: Primary cilium length (cilium staining, confocal microscopy), normal cells; type: cell-based; conditions: after treatment
Method: Cilium staining. Cells cultured on cover slips were washed with PBS, fixed with methanol, and blocked for one hour in a blocking buffer at room temperature. The γ-tubulin primary antibodies (1:100; Sigma-Aldrich, St Louis, MO) and acetylated α-tubulin primary antibodies (1:1000; Sigma-Aldrich) or IFT88 primary antibodies (1:100; ProteinTech, Rosemont, IL, USA) were incubated overnight at 4° C. After washing, Alexa Fluor 594 and 488 secondary antibodies were combined with the primary antibodies (Life Technologies, Carlsbad, CA, USA) and incubated for 2 hours at room temperature. The cover slips were placed on slides with Prolong Gold Antifade with Dapi (Invitrogen, Carlsbad, CA, USA). The slides were observed and images were taken using laser scanning confocal microscopy with a 60× objective (NIKON C1si Confocal Spectral Imaging System, NIKON Instruments Co., Melville, NY, USA). The field was magnified 4× to observe individual cilia. The images were opened with EZ-C1 3.90 Freeviewer and a scale bar was added. The images were converted to Tiff files and quantified using ImageJ Software. The scale bar saved in the image was measured and the scale established. Using the freehand tool, the cilia were traced and measurements taken.

T1 sequence (P56524 627-1084 limits assumed): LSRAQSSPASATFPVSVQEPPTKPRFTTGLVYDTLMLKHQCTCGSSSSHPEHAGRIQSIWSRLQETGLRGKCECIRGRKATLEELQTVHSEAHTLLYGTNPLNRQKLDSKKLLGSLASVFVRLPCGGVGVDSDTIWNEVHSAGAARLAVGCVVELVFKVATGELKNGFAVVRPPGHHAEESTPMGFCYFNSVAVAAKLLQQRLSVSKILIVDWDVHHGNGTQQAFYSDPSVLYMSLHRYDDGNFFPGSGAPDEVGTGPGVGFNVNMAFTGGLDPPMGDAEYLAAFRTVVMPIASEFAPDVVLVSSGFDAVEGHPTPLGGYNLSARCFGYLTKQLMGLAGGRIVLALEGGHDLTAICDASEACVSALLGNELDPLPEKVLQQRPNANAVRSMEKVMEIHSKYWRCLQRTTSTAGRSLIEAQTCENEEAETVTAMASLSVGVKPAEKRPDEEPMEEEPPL

Structure (SMILES)	IC50 (human HDAC4)	effect of quinine (OCT1 inhibitor) on the OCT1 transport (OCT1; joint administration with quinine)	transport through OCT1 (OCT1; liver cells (HepG2 overexpressing OCT1), HPLC-MS/MS cell content)	expression of α-acetylated-tubulin [1]	length of the cilia, normal human cholangiocytes [2]	melting point
C[C@H](CCC(=O)NCc1ccc(C(=O)NO)cc1)[C@H]1CC[C@H]2[C@@H]3[C@@H](O)C[C@@H]4C[C@H](O)CC[C@]4(C)[C@H]3CC[C@]12C [Compound Ia]	16.5 µM	inhibited by the presence of quinine	specifically transported through OCT1	increases significantly and in a dose-dependent manner	did not lead to any significant variations	
C[C@H](CCC(=O)NCC(=O)NCc1ccc(C(=O)NO)cc1)[C@H]1CC[C@H]2[C@@H]3[C@@H](O)C[C@@H]4C[C@H](O)CC[C@]4(C)[C@H]3CC[C@]12C [Ib, 4-((2-((R)-4 ((3R,5S,7S,8R,9S,10S,13R,14S,17R)-3,7-dihydroxy-10,13-dimethylhexadecahydro-1H-cyclopenta[a]phenanthren-17-yl)pentanamide)acetamido)methyl)-N-hydroxybenzamide]						153 to 155 °C
